# Results reported in patent US20120330012A1, “Novel Tricyclic Compounds” (ABBOTT LABORATORIES, priority 2011, published 2012).
# Molecular target: T1, Jak3 (Homo sapiens, UniProt P52333)
# T1 construct: Jak3 enzyme (aa 811-1103); expressed in SF9 cells as a GST fusion; GST; made in house; host or cells: SF9 insect cells
# Experiment: In vitro Jak3 kinase activity measured by trFRET
# Format: biochemical
# Details: Jak3 enzyme aa 811-1103, 0.001 mM ATP
# Excerpt: In Vitro Jak3 Kinase Activity Measured by Time-Resolved Fluorescence Resonance Energy Transfer (trFRET)
# T1 sequence (P52333 811-1103): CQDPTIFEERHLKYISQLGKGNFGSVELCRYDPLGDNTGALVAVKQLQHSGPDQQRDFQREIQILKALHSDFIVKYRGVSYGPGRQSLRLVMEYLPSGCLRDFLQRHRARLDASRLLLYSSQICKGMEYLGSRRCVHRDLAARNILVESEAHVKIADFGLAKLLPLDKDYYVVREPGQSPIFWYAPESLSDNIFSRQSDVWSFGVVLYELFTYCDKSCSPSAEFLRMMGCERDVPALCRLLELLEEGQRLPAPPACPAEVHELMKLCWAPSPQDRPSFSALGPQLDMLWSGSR
row,Compound,IC50
1,"c1cc2c(ncn3nnc(C4CCCCC4)c23)[nH]1 [Example #2, 1-Cyclohexyl-7H-pyrrolo[3,2-e][1,2,3]triazolo[1,5-c]pyrimidine]",1 to 10 µM
2,"CC(C)c1nc(C2CCCN(C(=O)OCc3ccccc3)C2)c2c3cc[nH]c3ncn12 (stereo not shown) [Example #3, Benzyl 3-(3-isopropyl-7H-imidazo[1,5-c]pyrrolo[3,2-e]pyrimidin-1-yl)piperidine-1-carboxylate]",1 to 10 µM
3,"O=C(OCc1ccccc1)N1CCCC(c2ncn3cnc4[nH]ccc4c23)C1 (stereo not shown) [Example #4, Benzyl 3-(7H-imidazo[1,5-c]pyrrolo[3,2-e]pyrimidin-1-yl)piperidine-1-carboxylate]",1 to 10 µM

# Second part, the molecule after the results:
row,IC50,Compound
1,1 to 10 µM,"N#CC1(C(=O)N2CCCC(c3nnn4cnc5[nH]ccc5c34)C2)CC1 (racemic) [Examples #5 and #6, Step E, 1-(3-(7H-Pyrrolo[3,2-e][1,2,3]triazolo[1,5-c]pyrimidin-1-yl)piperidine-1-carbonyl)cyclopropanecarbonitrile]"
2,1 to 10 µM,"N#CC1(C(=O)N2CCC[C@H](c3nnn4cnc5[nH]ccc5c34)C2)CC1 (single isomer, unassigned) [compound 5]"
3,0.1 to 1 µM,"N#CC1(C(=O)N2CCC[C@@H](c3nnn4cnc5[nH]ccc5c34)C2)CC1 (single isomer, unassigned) [compound 6]"

# Molecular target: T2, Syk (Homo sapiens, UniProt P43405)
# T2 construct: Syk catalytic domain (aa356-635, purified in-house at the Abbott Bioresearch Center); His tag (C); made in house; host or cells: SF9 insect cells
# Experiment: In vitro Syk kinase activity measured by trFRET
# Format: biochemical
# Details: Syk catalytic domain aa356-635, 0.001 mM ATP
# Protocol: In Vitro Syk Kinase Activity Measured by Time-Resolved Fluorescence Resonance Energy Transfer (trFRET)
# 0.3 nM Syk catalytic domain (aa356-635, purified in-house at the Abbott Bioresearch Center) was mixed with 0.1 μM peptide substrate (biotin-TYR1, Sequence: Biotin-(Ahx)-[…]-COOH) at varying concentrations of inhibitor in reaction buffer: 50 mM MOPSO pH 6.5, 10 mM MgCl2, 2 mM MnCl2, 2.5 mM DTT, 0.01% BSA, 0.1 mM Na3VO4 and 0.001 mM ATP. After about 60 min incubation at rt, the reaction was quenched by addition of EDTA (final concentration: 100 mM) and developed by addition of revelation reagents (final approximate concentrations: 30 mM HEPES pH 7.0, 0.06% BSA, 0.006% Tween-20, 0.24 M KF, 90 ng/mL PT66K (europium labeled anti-phosphotyrosine antibody cat #61T66KLB Cisbio, Bedford, Mass.) and 0.6 μg/mL SAXL (Phycolink streptavidin-allophycocyanin acceptor, cat #PJ52S, Prozyme, San Leandro, Calif.). The developed reaction was incubated in the dark either at about 4° C. for about 14 h or for about 60 min at rt, then read via a time-resolved fluorescence detector (Rubystar, BMG) using a 337 nm laser for excitation and emission wavelength of 665 nm. Within the linear range of the assay, the observed signal at 665 nm is directly related to phosphorylated product and used to calculate the IC50 values.
row,Compound,IC50
1,"c1cc2c(ncn3cnc(C4CCCCC4)c23)[nH]1 [Example #1, 1-Cyclohexyl-7H-imidazo[1,5-c]pyrrolo[3,2-e]pyrimidine]",1 to 10 µM
2,"c1cc2c(ncn3nnc(C4CCCCC4)c23)[nH]1 [Example #2, 1-Cyclohexyl-7H-pyrrolo[3,2-e][1,2,3]triazolo[1,5-c]pyrimidine]",> 10 µM
3,"CCCNC(=O)c1ccc(Nc2nc3[nH]ccc3c3nccn23)cc1 [Example #7, 4-(7H-Imidazo[1,2-c]pyrrolo[3,2-e]pyrimidin-5-ylamino)-N-propylbenzamide]",> 10 µM
4,"COc1ccc(-c2nnc3c4cc[nH]c4ncn23)cc1 [Example #8, 3-(4-Methoxyphenyl)-7H-pyrrolo[3,2-e][1,2,4]triazolo[4,3-c]pyrimidine]",> 10 µM
5,"CS(=O)(=O)c1ccc(-c2nnc3c4cc[nH]c4ncn23)cc1 [Example #9, 3-(4-(Methylsulfonyl)phenyl)-7H-pyrrolo[3,2-e][1,2,4]triazolo[4,3-c]pyrimidine]",> 10 µM

# The remaining lines, values ahead:
row,IC50,Compound
1,0.1 to 1 µM,"CC(C)(O)c1ccc(-c2cnc3c4cc[nH]c4ncn23)cc1 [Example #10, 2-(4-(7H-Imidazo[1,2-c]pyrrolo[3,2-e]pyrimidin-3-yl)phenyl)propan-2-ol]"
2,> 10 µM,"Brc1cnc2c3cc[nH]c3ncn12 [Example #10, Step D, 3-bromo-7H-imidazo[1,2-c]pyrrolo[3,2-e]pyrimidine]"
3,1 to 10 µM,"c1cncc(-c2cn3cnc4[nH]ccc4c3n2)c1 [Example #11, 2-(Pyridin-3-yl)-7H-imidazo[1,2-c]pyrrolo[3,2-e]pyrimidine]"
4,1 to 10 µM,"c1cc(-c2cc3c(ncn4ccnc34)[nH]2)ccn1 [Example #12, 8-(Pyridin-4-yl)-7H-imidazo[1,2-c]pyrrolo[3,2-e]pyrimidine]"
5,1 to 10 µM,"CC(=O)N1CCCC(c2nc(-c3ccc(C(C)C)cc3)n3cnc4[nH]ccc4c23)C1 (stereo not shown) [Example #13, 1-(3-(3-(4-Isopropylphenyl)-7H-imidazo[1,5-c]pyrrolo[3,2-e]pyrimidin-1-yl)piperidin-1-yl)ethanone]"
